Assay results: patent US20240269095A1, “Rapid Onset Therapeutic Ketosis Enabled by D-BetaHydroxyButyric Acid Systems, Compounds and Methods for Stroke medication co-administration” (American Ketone Therapeutics LLC, priority 2022, published 2024)

Columns and labels:
[1] = Blood ketone level by Abbott blood ketone meter / test strip after oral free D-BHB; assay type: in vivo, human
Source text: FIG. 9 is a graphical illustration of D-BHB exogenous ketone blood levels. The above Abbot blood ketone meter evidenced by Abbott blood test strip depicts the rapid rise in blood ketone levels from 0.1 mmol/L (absence of ketosis) to 2.7 mmol/L (ketosis) after oral bolus administration of 15 grams of bioidentical free D-BetaHydroxyButyric Acid. The ketone levels depicted are attained in the absence of a salt as well as without ester bonds. It is the free acid D-BHB exogenously administered which is bio-identical to the endogenous D-BHB free acid generated by the human body. The bioidentical ketone body D-BHB is first and foremost an energy source, which is directly and preferentially metabolized by the brain. D-BHB is also active as a signaling mechanism and neuro-inflammation reduction agent, resulting in broad and beneficial brain bioenergy related benefits.
FIG. 10 is a graphical illustration of D-BHB exogenous ketone blood levels. FIG. 10 details rapid ketosis within 45 minutes confirmed by Abbott blood test strip after 10 g D-BHB with palatability agent administered by oral drink. Blood ketone levels document rise from 0.2 mmol/L to 1.8 mmol/L and 0.6 mmol/L to 1.9 mmol/L in a variety of test subjects. FIG. 10 reinforces the fact that supplementation by utilizing free D only BetaHydroxyButyric Acid without ketone salt or ketone ester is a reliable, reproducible method and system for rapid ketone level increase for stroke recovery and maintenance. While amounts of free D only BetaHydroxyButyric Acid taken for stroke effects may vary, it is an anticipated preferred embodiment that levels between 5 and 30 grams of D only BetaHydroxyButyric Acid are taken as needed for optimum recovery. Alternate embodiments may include lower or higher amounts, however, experimental evidence has confirmed optimal administration in this range for a wide variety of other applications.

[2] = Continuous glucose monitoring (Abbot Libre CGM) with carbohydrate challenge; assay type: in vivo, human; details: 10 g given 45 minutes before 50 g carbohydrate ingestion; compared with unsupplemented ingestion
Source text: FIG. 11 is a graphical illustration of continuous monitoring of body glucose levels. FIG. 11 depicts continuous glucose monitoring levels with carbohydrate challenge documented by Abbot Libre Continuous Glucose Monitoring (CGM) device. In this illustrative embodiment, glucose levels from a 50 g carbohydrate ingestion are depicted unaided by free D-BetaHydroxyButyric Acid on the left and repeated the following day with two 50 g carbohydrate ingestions accompanied by 10 g free D-BetaHydroxyButyric Acid administered 45 minutes before the carbohydrate insult. […] As free D-BetaHydroxyButyric Acid can lower glucose while rapidly increasing ketone levels, it is believed that obtaining high ketones while lowering glucose will yield additional stroke recovery benefits for high glucose sensitive individuals suffering from stroke.

[3] = Stated properties of free D-BHB (Table 1); parameters: species or system human
[4] = Continuous Ketone Meter (CKM) monitoring of body ketone levels and deep sleep; assay type: in vivo, human; details: 5 grams consumed 45 minutes prior to bedtime
Source text: FIG. 12 is a graphical illustration of continuous monitoring of body ketone levels resulting in improved deep sleep time due to enhanced D-BHB levels according to the claimed invention. It is noteworthy that consumption of even small amounts of free D-BetaHydroxy Butyric Acid can give rise to therapeutic ketosis levels as measured by Continuous Ketone Meter (CKM). […] While free D-BetaHydroxyButyric Acid is not a sedative, even small amounts can greatly improve deep sleep quantity and quality. It is an intended and foreseeable embodiment application to increase deep sleep with free D-BetaHydroxyButyric Acid with the aim of improving stroke recovery and enhanced brain resiliency.

[5] = compared with ketone salts, literature table; cited from earlier work

Row | time to ketosis ([1]; 10 g D-BHB with palatability agent by oral drink) [min] | blood ketone level after administration ([1]; 10 g with palatability agent by oral drink, test subject rising from 0.2 mmol/L) [mmol/L] | blood ketone level after administration ([1]; 10 g with palatability agent by oral drink, test subject rising from 0.6 mmol/L) [mmol/L] | blood ketone level after administration ([1]; oral bolus of 15 grams, rise from 0.1 mmol/L (absence of ketosis)) [mmol/L] | Induces Ketoacidosis [3] | Metabolism [3] | increase in ketone level (CKM) [4] [mmol/L] | SMILES | glucose spike after carbohydrate ingestion [2] | deep sleep quantity [4] | ketone level response [5]
1 | ≤ 45 | 1.8 | 1.9 | 2.7 | Induces Ketoacidosis: No | Metabolism: Rapid, minutes | 1.5 | C[C@@H](O)CC(=O)O [free D-BetaHydroxyButyric Acid, D-β-HydroxyButyric Acid] | rapid glucose spike depicted in the unsupplemented ingestion is not found | enhance the quantity of deep sleep obtained | 
2 |  |  |  |  |  |  |  | C[C@@H](O)CCOC(=O)C[C@@H](C)O [ketone ester, (R)-3-hydroxybutyl (R)-3-hydroxybutyrate] |  |  | higher ketone level response
